The NIST ThermoML archive (doi:10.1021/je500792x)

Assay: xn = mol fraction of the nth substance listed
Conditions: Gas, Buoyancy - hydrostatic balance with magnetic suspension - two sinkers

C [methane] + CCC
Conditions	mass density [kg/m3]
293.15 K, 1153.9 kPa, x1 = 0.2658	20.3554
293.15 K, 1175 kPa, x1 = 0.2658	20.8043
293.15 K, 1187.5 kPa, x1 = 0.2658	21.0718
293.15 K, 1209.4 kPa, x1 = 0.5069	16.361
293.15 K, 1399.6 kPa, x1 = 0.5069	19.2777
293.15 K, 1605.8 kPa, x1 = 0.5069	22.5759
298.14 K, 160.58 kPa, x1 = 0.2658	2.414
298.15 K, 311.48 kPa, x1 = 0.2658	4.7646
298.15 K, 471.27 kPa, x1 = 0.2658	7.3487
298.15 K, 493.82 kPa, x1 = 0.7498	4.6835
298.15 K, 500.2 kPa, x1 = 0.7498	4.742
298.15 K, 605.41 kPa, x1 = 0.2658	9.6013
298.15 K, 758.38 kPa, x1 = 0.2658	12.2732
298.15 K, 785.06 kPa, x1 = 0.7498	7.5358
298.15 K, 909.2 kPa, x1 = 0.2658	15.0282
298.15 K, 999.01 kPa, x1 = 0.7498	9.679
298.15 K, 1000.6 kPa, x1 = 0.7498	9.6924
298.15 K, 1055.1 kPa, x1 = 0.2658	17.8236
298.15 K, 1094 kPa, x1 = 0.7498	10.6384
298.15 K, 1201.2 kPa, x1 = 0.2658	20.7664
298.15 K, 1355.7 kPa, x1 = 0.2658	24.0659
298.15 K, 1372.4 kPa, x1 = 0.7498	13.507
298.15 K, 1686.6 kPa, x1 = 0.7498	16.8301
298.15 K, 1999.5 kPa, x1 = 0.7498	20.2389
298.15 K, 2001.4 kPa, x1 = 0.7498	20.2558
298.15 K, 2075.4 kPa, x1 = 0.7498	21.0754
298.15 K, 3006.3 kPa, x1 = 0.7498	31.9148
298.15 K, 3043.9 kPa, x1 = 0.7498	32.3714
298.15 K, 3990.5 kPa, x1 = 0.7498	44.5527
298.15 K, 4003.1 kPa, x1 = 0.7498	44.7224
298.15 K, 4119.5 kPa, x1 = 0.7498	46.3151
298.15 K, 4424.2 kPa, x1 = 0.7498	50.5647
298.15 K, 4993.9 kPa, x1 = 0.7498	58.9113
298.15 K, 5997.5 kPa, x1 = 0.7498	74.9816
298.15 K, 5999.6 kPa, x1 = 0.7498	75.0173
323.16 K, 434.83 kPa, x1 = 0.5069	4.9489
323.16 K, 609.43 kPa, x1 = 0.5069	7.005
323.16 K, 747.99 kPa, x1 = 0.7498	6.5657
323.16 K, 981.92 kPa, x1 = 0.7498	8.6824
323.16 K, 1028.4 kPa, x1 = 0.5069	12.1152
323.16 K, 1206.2 kPa, x1 = 0.5069	14.365
323.16 K, 1225.9 kPa, x1 = 0.7498	10.9233
323.16 K, 1407.1 kPa, x1 = 0.5069	16.9693
323.16 K, 1492.3 kPa, x1 = 0.7498	13.4094
323.16 K, 1603.4 kPa, x1 = 0.5069	19.5802
323.16 K, 1721 kPa, x1 = 0.7498	15.578
323.16 K, 1804.7 kPa, x1 = 0.5069	22.3318
323.16 K, 1913.8 kPa, x1 = 0.5069	23.855
323.16 K, 1988.8 kPa, x1 = 0.7498	18.1586
323.16 K, 3017.7 kPa, x1 = 0.7498	28.51
323.16 K, 4475.4 kPa, x1 = 0.7498	44.4692
323.16 K, 5928.8 kPa, x1 = 0.7498	62.0416
323.17 K, 161.42 kPa, x1 = 0.2658	2.2297
323.17 K, 240.14 kPa, x1 = 0.5069	2.7038
323.17 K, 277.8 kPa, x1 = 0.2658	3.8766
323.17 K, 380.81 kPa, x1 = 0.2658	5.3632
323.17 K, 474.08 kPa, x1 = 0.2658	6.7339
323.17 K, 556.87 kPa, x1 = 0.2658	7.9706
323.17 K, 653.58 kPa, x1 = 0.2658	9.4407
323.17 K, 814.12 kPa, x1 = 0.5069	9.4697
323.17 K, 861.14 kPa, x1 = 0.2658	12.694
323.17 K, 956.3 kPa, x1 = 0.2658	14.2336
323.17 K, 1057.6 kPa, x1 = 0.2658	15.9088
323.17 K, 1155.4 kPa, x1 = 0.2658	17.5614
373.14 K, 736.34 kPa, x1 = 0.5069	7.2655
373.14 K, 1298.1 kPa, x1 = 0.5069	13.0615
373.14 K, 1387.2 kPa, x1 = 0.5069	14.0021
373.14 K, 1906.7 kPa, x1 = 0.5069	19.6043
373.15 K, 286.24 kPa, x1 = 0.5069	2.7813
373.15 K, 293.98 kPa, x1 = 0.7498	2.1956
373.15 K, 494.25 kPa, x1 = 0.7498	3.7047
373.15 K, 559.53 kPa, x1 = 0.5069	5.4874
373.15 K, 587.98 kPa, x1 = 0.5069	5.7723
373.15 K, 732.21 kPa, x1 = 0.7498	5.5128
373.15 K, 776.15 kPa, x1 = 0.5069	7.6695
373.15 K, 942.67 kPa, x1 = 0.5069	9.3682
373.15 K, 969.14 kPa, x1 = 0.5069	9.6405
373.15 K, 973.87 kPa, x1 = 0.7498	7.3646
373.15 K, 1118.7 kPa, x1 = 0.5069	11.1859
373.15 K, 1177.4 kPa, x1 = 0.5069	11.7969
373.15 K, 1222.4 kPa, x1 = 0.7498	9.2859
373.15 K, 1491.1 kPa, x1 = 0.7498	11.3819
373.15 K, 1497 kPa, x1 = 0.5069	15.1688
373.15 K, 1581.5 kPa, x1 = 0.5069	16.0735
373.15 K, 1707.3 kPa, x1 = 0.5069	17.4293
373.15 K, 1745.3 kPa, x1 = 0.5069	17.8434
373.15 K, 1990.9 kPa, x1 = 0.7498	15.3338
373.15 K, 1998.3 kPa, x1 = 0.7498	15.3921
373.15 K, 1999.3 kPa, x1 = 0.5069	20.6289
373.15 K, 3998.4 kPa, x1 = 0.7498	31.915
373.15 K, 4503 kPa, x1 = 0.7498	36.2589
373.15 K, 5859.6 kPa, x1 = 0.7498	48.2829
373.16 K, 150.36 kPa, x1 = 0.2658	1.7881
373.16 K, 249.5 kPa, x1 = 0.2658	2.984
373.16 K, 442.47 kPa, x1 = 0.2658	5.3479
373.16 K, 487.18 kPa, x1 = 0.7498	3.6521
373.16 K, 564.91 kPa, x1 = 0.2658	6.8735
373.16 K, 592.63 kPa, x1 = 0.2658	7.2228
373.16 K, 676.04 kPa, x1 = 0.2658	8.2772
373.16 K, 733.18 kPa, x1 = 0.2658	9.007
373.16 K, 866.5 kPa, x1 = 0.2658	10.7249
373.16 K, 883.43 kPa, x1 = 0.2658	10.9464
373.16 K, 963.18 kPa, x1 = 0.2658	11.9881
373.16 K, 991.05 kPa, x1 = 0.7498	7.4967
373.16 K, 1034.3 kPa, x1 = 0.2658	12.9279
373.16 K, 1057.2 kPa, x1 = 0.2658	13.2303
373.16 K, 1156.4 kPa, x1 = 0.2658	14.557
373.16 K, 1174.7 kPa, x1 = 0.2658	14.8058
373.16 K, 1293.1 kPa, x1 = 0.2658	16.4139
373.16 K, 1468.2 kPa, x1 = 0.7498	11.1998
373.16 K, 1985.8 kPa, x1 = 0.7498	15.2929
373.16 K, 2987.4 kPa, x1 = 0.7498	23.4236
373.16 K, 2996.6 kPa, x1 = 0.7498	23.4974
373.16 K, 3945 kPa, x1 = 0.7498	31.4611
373.16 K, 4881.1 kPa, x1 = 0.7498	39.5669
373.16 K, 6041.3 kPa, x1 = 0.7498	49.9291
373.17 K, 281.96 kPa, x1 = 0.2658	3.3776
373.17 K, 361.95 kPa, x1 = 0.2658	4.3551
373.17 K, 469.53 kPa, x1 = 0.2658	5.683
